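Growth conditions: 96-well plates. Treatment: test compound, 48 hours, 5 concentrations. Analysis: linear interpolation between bracketing concentrations; unreached endpoints set to highest concentration. The concentration for full growth arrest is given as TGI.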
Columns and labels:
Test in all cases: NCI-60 cell line screen, 48 h
786-0 renal = test system: 786-0 renal
A498 renal = test system: A498 renal
A549 NSCLC = test system: A549 NSCLC
ACHN renal = test system: ACHN renal
BT-549 breast = test system: BT-549 breast
CAKI-1 renal = test system: CAKI-1 renal
CCRF-CEM leukemia = test system: CCRF-CEM leukemia
COLO 205 colon = test system: COLO 205 colon
DU-145 prostate = test system: DU-145 prostate
EKVX NSCLC = test system: EKVX NSCLC
HCC-2998 colon = test system: HCC-2998 colon
HCT-116 colon = test system: HCT-116 colon
HCT-15 colon = test system: HCT-15 colon
HL-60(TB) leukemia = test system: HL-60(TB) leukemia
HOP-62 NSCLC = test system: HOP-62 NSCLC
HOP-92 NSCLC = test system: HOP-92 NSCLC
HS 578T breast = test system: HS 578T breast
HT29 colon = test system: HT29 colon
IGROV1 ovarian = test system: IGROV1 ovarian
KM12 colon = test system: KM12 colon
LOX IMVI melanoma = test system: LOX IMVI melanoma
M14 melanoma = test system: M14 melanoma
MALME-3M melanoma = test system: MALME-3M melanoma
MCF7 breast = test system: MCF7 breast
MDA-MB-231 breast = test system: MDA-MB-231 breast
MDA-MB-435 = test system: MDA-MB-435
MDA-N = test system: MDA-N
MOLT-4 leukemia = test system: MOLT-4 leukemia
NCI-H226 lung = test system: NCI-H226 lung
NCI-H23 lung = test system: NCI-H23 lung
NCI-H460 lung = test system: NCI-H460 lung
NCI-H522 lung = test system: NCI-H522 lung
NCI/ADR-RES ovarian = test system: NCI/ADR-RES ovarian
OVCAR-3 ovarian = test system: OVCAR-3 ovarian
OVCAR-4 ovarian = test system: OVCAR-4 ovarian
OVCAR-5 ovarian = test system: OVCAR-5 ovarian
OVCAR-8 ovarian = test system: OVCAR-8 ovarian
PC-3 prostate = test system: PC-3 prostate
RPMI-8226 leukemia = test system: RPMI-8226 leukemia
RXF 393 renal = test system: RXF 393 renal
SF-268 CNS = test system: SF-268 CNS
SF-295 CNS = test system: SF-295 CNS
SF-539 CNS = test system: SF-539 CNS
SK-MEL-2 melanoma = test system: SK-MEL-2 melanoma
SK-MEL-28 melanoma = test system: SK-MEL-28 melanoma
SK-MEL-5 melanoma = test system: SK-MEL-5 melanoma
SK-OV-3 ovarian = test system: SK-OV-3 ovarian
SN12C renal = test system: SN12C renal
SNB-19 CNS = test system: SNB-19 CNS
SNB-75 CNS = test system: SNB-75 CNS
SR leukemia = test system: SR leukemia
SW-620 colon = test system: SW-620 colon
T-47D breast = test system: T-47D breast
TK-10 renal = test system: TK-10 renal
U251 CNS = test system: U251 CNS
UACC-257 melanoma = test system: UACC-257 melanoma
UACC-62 melanoma = test system: UACC-62 melanoma
UO-31 renal = test system: UO-31 renal
K-562 leukemia = test system: K-562 leukemia

Measured: TGI

CC(=O)NNc1nc(C)c(C(/C=C/c2ccc(NC(C)=O)cc2)=N/NS(=O)(=O)c2ccc(C)cc2)s1
not listed: K-562 leukemia
> 100 µM: all other assays above

C=CCC1=CC2(OC)C(=O)C(OC)(OC)C1C1C(OC)(OC)C(=O)C(OC)=CC12CC=C (stereo not given)
not listed: NCI-H226 lung | SR leukemia
> 100 µM: all other assays above

CC1(C)S[C@@H]2[C@H](NC(=O)/C=C/c3ccccc3)C(=O)N2[C@H]1C(=O)O
not listed: A498 renal | EKVX NSCLC | RXF 393 renal | K-562 leukemia
> 100 µM: all other assays above

Reference: PubChem BioAssay (NCI)
